# Literature values, collected in patent US8143269B2, “Inhibitors of store operated calcium release” (Calcimedica, Inc., priority 2008, dated 2012).
# How the values were obtained:
# [1] = biological target: STIM1 and Orai1 in human embryonic kidney 293 cells (HEK293 cells) (Homo sapiens, UniProt Q96D31); details: HEK293 cells coexpressing STIM1 and Orai1
# STIM1 and Orai1 in human embryonic kidney 293 cells (HEK293 cells), sequence (Q96D31 whole entry): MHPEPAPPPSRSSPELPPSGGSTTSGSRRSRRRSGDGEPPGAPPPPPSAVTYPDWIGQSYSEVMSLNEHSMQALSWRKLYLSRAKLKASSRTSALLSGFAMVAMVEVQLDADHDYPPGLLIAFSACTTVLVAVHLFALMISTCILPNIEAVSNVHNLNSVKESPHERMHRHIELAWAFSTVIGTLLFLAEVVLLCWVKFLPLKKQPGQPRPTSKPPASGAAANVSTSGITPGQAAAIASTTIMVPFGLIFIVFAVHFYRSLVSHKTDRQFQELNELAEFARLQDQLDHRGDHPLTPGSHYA
block of store-dependent Ca2+ entry [1],Structure (SMILES),inhibition of SOCE (Jurkat cells),inhibition of proliferation (Jurkat cells),inhibition of SOCE (colon cancer cells),inhibition of proliferation (colon cancer cells)
,Cc1nnsc1C(=O)Nc1ccc(-n2nc(C(F)(F)F)cc2C(F)(F)F)cc1 [BTP-2],inhibits,inhibits,inhibits,inhibits
completely blocked,NCCOB(c1ccccc1)c1ccccc1 [2-aminoethoxydiphenylborate],,,,
